In a melting point compilation (Tetko et al.):

Compound	melting point
COC(=O)c1c(C(=O)CCl)c(C)n(C2CC2)c1C	74 to 78 °C
c1ccc2[nH]c(C3CCNCC3)cc2c1	192 to 194 °C
NC(=O)CC1CCCC1	149 to 151 °C
Cc1ccc(-c2csc(CC(N)=NO)n2)cc1	146 to 148 °C
Cc1cc(Nc2nc3ccccc3nc2Cl)n(-c2ccccc2)n1	178 to 180 °C
CS(=O)(=O)c1cc(Br)ccc1N	129 to 131 °C
Nc1cccc(Cn2cnnc2)c1	139 to 141 °C
COc1ccc(-c2cc(C(=O)O)no2)c(F)c1	194 to 196 °C
O=[N+]([O-])c1ccc(-c2noc(Cl)n2)cc1	118 to 120 °C
CCNS(=O)(=O)c1cc(/C=C/C(=O)O)ccc1OC	198 to 200 °C
O=C(O)c1cc([N+](=O)[O-])cc(F)c1F	132 to 134 °C
CC(C)(C)OC(=O)N1CCCC(C(C)(C)C(=O)O)C1 (configuration not stated)	96 to 98 °C
Cc1cc(C(F)(F)F)nc(O)n1	185 to 187 °C
CC1Cc2cc(S(N)(=O)=O)cc(Cl)c2O1 (configuration not stated)	174 to 176 °C
Cc1ccc(C)c(SCc2nc3sc(C(=O)O)c(C)c3c(=O)[nH]2)c1	295 to 297 °C
O=Cc1cc(C23CC4CC(CC(C4)C2)C3)n[nH]1	134 to 136 °C
Oc1cccc(Oc2ccncc2)c1	119 to 121 °C
CN(C)C(=O)c1ccc(Cl)c(S(=O)(=O)Cl)c1	106 to 108 °C
O=C1NC(=O)N(C2CCS(=O)(=O)C2)C1=O (configuration not stated)	244 to 246 °C
CC(C)(C)OC(=O)NCC1CCCCC1N (configuration not stated)	61 to 63 °C
Cc1cc(C=O)c(C)n1-c1ccc2c(c1)OCCO2	112 to 114 °C

Compound	melting point
COC(=O)c1c(CC(C)C)csc1N	66 to 68 °C
CC1(C)C(=O)Nc2ccc(Br)cc21	156 to 158 °C
Cc1nc(C#N)c(NN)o1	157 to 159 °C
COC(=O)Cc1nn[nH]n1	154 to 156 °C
O=C1CC2(CCCCC2)CC(=O)O1	210 to 214 °C
COC(=O)NC(C)(C)C(=O)O	154 to 156 °C
O=S(=O)(Cl)c1ccc(OCC2CCCCO2)cc1 (configuration not stated)	64 to 66 °C
O=C(CCl)NCCc1ccc2c(c1)OCCO2	72 to 76 °C
COC(=O)c1cc(Cl)c(N)cc1OC	124 to 126 °C
Cc1oc(C(N)=O)cc1C(=O)CCl	197 to 199 °C
COC(=O)c1cc2c(F)cc(Br)cc2[nH]1	190 to 192 °C
O=Cc1ccc(Oc2ccc(Cl)cc2[N+](=O)[O-])cc1	69 to 71 °C
Clc1noc(-c2cccs2)n1	37 to 39 °C
Cc1cc(C2(C)NC(=O)NC2=O)c(C)o1 (configuration not stated)	144 to 146 °C
CC1CCC(NS(=O)(=O)c2ccc(Cl)c([N+](=O)[O-])c2)CC1 (configuration not stated)	101 to 103 °C
Cc1cc(N)ccc1NS(C)(=O)=O	141 to 143 °C
O=Cc1cc(-c2cccs2)cs1	107 to 109 °C
O=C(CCl)c1c[nH]c(C(=O)N2CCCC2)c1	200 to 204 °C
Cc1ccc(-c2nn(Cc3ccccc3)cc2C=O)cc1C	79 to 81 °C
COC(=O)c1c(CC(=O)O)[nH]c(C(C)=O)c1C	205 to 207 °C
CC(=O)OC(OC(C)=O)c1ccc(S(=O)(=O)Cl)cc1	109 to 111 °C

Compound	melting point
COC(=O)NC1CCC(O)CC1 (configuration not stated)	139 to 141 °C
O=c1ccccn1Cc1ccc(Cl)c([N+](=O)[O-])c1	92 to 94 °C
Nc1cc(C2CCC2)nn1-c1ccccc1	87 to 89 °C
Clc1ccc2cccnc2c1CBr	119 to 121 °C
O=C(O)C1CSCN1C(=O)C1CCCC1 (configuration not stated)	114 to 116 °C
O=C(O)C1CCCN1C(=O)C1CCCCC1 (configuration not stated)	135 to 137 °C
CC(C)Oc1ccc(C(O)CN)cc1 (configuration not stated)	62 to 64 °C
Cc1ccc(N2C(=O)NC(CCC(=O)O)C2=O)cc1Cl (configuration not stated)	193 to 195 °C
Nc1nnc(-c2cccc(Br)c2)s1	216 to 218 °C
COC(=O)c1n[nH]c(=O)c2noc(C)c12	215 to 217 °C
CN(C)c1ccc(C2CC2C(=O)O)cc1 (configuration not stated)	119 to 121 °C
Cc1cnc(C#N)nc1	67 to 69 °C
Cc1ccc(F)c2c1NC(=O)C2=O	227 to 229 °C
O=C(O)c1ccc(-c2cc(F)c(F)c(F)c2)cc1	264 to 266 °C
Nc1ncc(Cc2ccc(Br)cc2)s1	129 to 131 °C
NS(=O)(=O)c1cc(C(F)(F)F)ccc1Cl	154 to 156 °C
COc1cc(OC)cc(C(N)c2nccn2C)c1 (configuration not stated)	99 to 101 °C
Nc1nc2ccccc2n1CCCn1ccnc1	178 to 180 °C
O=c1[nH]ncc2cccnc12	309 to 311 °C
Nc1cnn(CC(=O)O)c1	206 to 208 °C
C=CC(=O)NCc1cnc(C)s1	111 to 113 °C

Compound	melting point
Cc1cc(NC(=O)OCC(F)(F)F)n(C)n1	100 to 102 °C
O=C(O)Cn1ccnn1	214 to 216 °C
CC(=O)NCC(=O)NCC(=O)O	174 to 176 °C
COC(=O)c1cn(CCCC#N)nn1	75 to 77 °C
CS(=O)(=O)NC1CCNCC1	143 to 145 °C
CCC(Nc1nc(C)cs1)C(=O)O (configuration not stated)	173 to 175 °C
CNc1nc(N)n[nH]1	158 to 160 °C
Nc1nc2nc(-c3cccs3)cc(C(F)(F)F)c2s1	243 to 245 °C
O=C1CCCc2cc(C(=O)O)ccc2N1	267 to 269 °C
Cc1ccc(S(=O)(=O)NCCCC(=O)O)cc1C	111 to 113 °C
COc1ccc2[nH]c(C(=O)O)cc2c1OC	221 to 223 °C
Cc1cc(-n2c(C)cc(C(=O)CCl)c2C)no1	110 to 112 °C
Cc1nc(S)oc1C	132 to 134 °C
NS(=O)(=O)c1cccc2c1CCCN2	147 to 149 °C
Nc1ccc2c(c1)nc1n2CCCCC1	180 to 182 °C
Cc1c(Cl)cnc(NC(=O)CCl)c1Cl	268 to 270 °C
CN(C)N=Cc1cnn(C)c1	70 to 72 °C
O=[N+]([O-])c1ccc2nc(Cl)ccc2c1	224 to 226 °C
Cc1nc(O)ccc1I	209 to 211 °C
O=S(=O)(Cl)c1ccc(Cl)c2ncccc12	111 to 113 °C
C=CCc1ccc(OCC(=O)O)c(OC)c1	169 to 172 °C

Second part, the compound after the results:

melting point	Compound
157 to 161 °C	Cc1cc(CSc2ccccc2C(=O)O)on1
151 to 153 °C	NNC(=O)c1ccc(F)cc1Br
163 to 165 °C	CC(C)(C(=O)O)C(O)c1cccc(O)c1 (configuration not stated)
211 to 213 °C	Cc1c(C(=O)O)cnn1-c1ccc(Br)cc1
91 to 93 °C	N#Cc1ccccc1CN1CCOC1=O
167 to 169 °C	CC(C)(C(=O)O)C(O)c1ccc(OCc2ccccc2)cc1 (configuration not stated)
144 to 146 °C	Nc1ccn(Cc2cn3ccccc3n2)n1
169 to 171 °C	O=C(O)CSc1nnc(-c2ccccc2)o1
107 to 109 °C	O=C(O)C1CCN(C(=O)CCc2ccccc2)CC1
179 to 181 °C	N=C(N)Nc1nc2ccccc2o1
198 to 200 °C	O=C(NC(C(=O)O)c1ccccc1)c1ccccc1 (configuration not stated)
180 to 182 °C	O=C(NCc1ccccc1)c1cc2ccccc2cc1O
195 to 197 °C	O=C(Nc1cnccn1)c1ccc(Br)cc1
133 to 135 °C	O=C(Nc1cccnc1)c1cccc(Br)c1
203 to 205 °C	CNC(=O)c1c[nH]c2ccccc12
99 to 101 °C	NN=C(Nc1ccccc1)c1cc(F)cc(F)c1
39 to 41 °C	C#Cc1nc2ccccc2s1
177 to 179 °C	N#Cc1cccc(OCc2ccoc2C(=O)O)c1
87 to 89 °C	COc1ccc(N)cc1OCC(=O)NC1CC1
88 to 90 °C	CS(=O)(=O)NCc1ccccn1

melting point	Compound
53 to 55 °C	COC(=O)c1c(C)cccc1S(=O)(=O)Cl
159 to 161 °C	CCCOc1nc(C(=O)O)cc2ccccc12
161 to 163 °C	O=C(Nc1cc[nH]n1)c1ccccc1
65 to 67 °C	Nc1ccccc1S(=O)(=O)C(F)F
165 to 167 °C	Cc1cccc(S(N)(=O)=O)n1
148 to 150 °C	CC(N)c1ccc(S(N)(=O)=O)cc1 (configuration not stated)
99 to 101 °C	COc1ccc(C)cc1NCCCC(=O)O
59 to 61 °C	COc1ccc(C(C)=O)c(OCc2ccccc2)c1
188 to 203 °C	O=C(O)Cn1c(SC(F)F)nc2ccccc21
128 to 130 °C	O=C(O)C1CCCN(S(=O)(=O)Cc2ccccc2)C1 (configuration not stated)
134 to 136 °C	O=C(O)C(Oc1ccc(F)cc1Cl)c1ccccc1 (configuration not stated)
70 to 72 °C	CCOc1ccccc1CCC(=O)O
243 to 247 °C	Cn1c(=O)c2c(n(Cc3ccccc3)c1=O)NC(=O)C2CC(=O)O (configuration not stated)
202 to 204 °C	Nc1cc(NC(=O)c2ccccc2I)ccc1F
99 to 101 °C	CC(C)Cn1[nH]c(-c2ccccc2)cc1=N
136 to 138 °C	N#CCC(=O)Nc1ccccc1Br
157 to 159 °C	O=S(=O)(NC1CCNCC1)c1ccccc1
139 to 141 °C	NC(=O)NCc1ccccn1
122 to 124 °C	C=CC(=O)Nc1cccc(Br)c1
124 to 126 °C	O=[N+]([O-])c1ccc(NC2CCOc3ccccc32)cc1 (configuration not stated)

melting point	Compound
119 to 121 °C	Cc1nc2ccccc2n1C(C(=O)O)C(C)C (configuration not stated)
107 to 109 °C	CS(=O)(=O)Nc1ccc(CCl)cc1
199 to 201 °C	O=C(O)c1c(O)cnc2ccccc12
125 to 127 °C	COc1cccc(C2(C(=O)O)CCCC2)c1
155 to 157 °C	Cn1c(-c2ccccc2)c(C(=O)CC#N)c2ccccc21
96 to 98 °C	O=Cc1ccc(OCc2ccccc2)c(Br)c1
142 to 144 °C	CN(C(=O)OC(C)(C)C)c1ccc(C(=N)N)cc1
94 to 96 °C	O=C(O)c1cccc(OCC(F)F)n1
289 to 291 °C	Cc1c[nH]c(=O)n1-c1cccc(C(=O)O)c1
180 to 182 °C	NC(=O)C1NCCc2ccccc21 (configuration not stated)
124 to 126 °C	O=C(c1c[nH]c2ccccc12)C(Cl)c1ccccc1 (configuration not stated)
170 to 172 °C	NS(=O)(=O)c1cc(F)ccc1Br
130 to 139 °C	CC(Cl)C(=O)NC(c1ccccc1)c1ccccc1 (configuration not stated)
143 to 145 °C	CS(=O)(=O)Nc1cc(Br)ccc1F
177 to 179 °C	N#CCc1nc(-c2ccc(C#N)cc2)cs1
85 to 87 °C	O=C(O)CCSc1ccc(Cl)cc1
216 to 218 °C	N#CC(C(=O)CCl)c1nc2ccccc2c(=O)[nH]1 (configuration not stated)
44 to 46 °C	Nc1ccccc1CC(F)(F)F
